Experimental data reported in patent US20050165047A1, “Crystalline fumarate salts of 1-azabicyclo[2.2.2]oct substituted furo[2,3-c]pyridinyl carboxamide and compositions and preparations thereof” (Pfizer Inc, priority 2002, published 2005).
Blank lines part the entries; values can stand above or below the compound they belong to.

Test: Moisture sorption by DMSG on a controlled atmosphere microbalance
Assay type: physicochemical
Details: 25° C.
Description: The sorption of water by the solid lattice at a given relative humidity (RH) was measured by DMSG on a controlled atmosphere microbalance. Scans were carried out at 25° C. from 36% to 0% RH then ramped to 90% RH, and back down to 0% RH with a step size of 3% RH. A sample size of 8 to 14 mg was used. At each step, the balance was considered equilibrated when the mass change was less than 0.01 mg for five consecutive scans. There were 120 seconds between each scan.
Table 3 provides the moisture sorption data at 25° C. for Crystal Forms Ia and Ib of N-[1-azabicyclo[2.2.2]oct-3-yl]furo[2,3-c]pyridine-5-carboxamide.

- % dMass (RH 0%, 0-90% RH): 0.006227%
- % dMass (RH 0%, 36-0% RH): 0.008896%
- % dMass (RH 0.1%, 36-0% RH): 0.01245%
- % dMass (RH 0.36%, 36-0% RH): 0.01156%
- % dMass (RH 1.3%, 0-90% RH): 0.01512%
- % dMass (RH 1.6%, 36-0% RH): 0.02224%
- % dMass (RH 4.3%, 0-90% RH): 0.0258%
- % dMass (RH 4.74%, 36-0% RH): 0.0338%
- % dMass (RH 7.1%, 0-90% RH): 0.03736%
- % dMass (RH 7.98%, 36-0% RH): 0.0427%
- % dMass (RH 10.1%, 0-90% RH): 0.04448%
- % dMass (RH 10.8%, 36-0% RH): 0.04893%
- % dMass (RH 13.14%, 0-90% RH): 0.05249%
- % dMass (RH 13.96%, 36-0% RH): 0.05515%
- % dMass (RH 16.18%, 0-90% RH): 0.05782%
- % dMass (RH 17.1%, 36-0% RH): 0.06227%
- % dMass (RH 19.28%, 0-90% RH): 0.06227%
- % dMass (RH 19.94%, 36-0% RH): 0.07028%
- % dMass (RH 22.56%, 0-90% RH): 0.07295%
- % dMass (RH 23.18%, 36-0% RH): 0.07739%
- % dMass (RH 25.72%, 0-90% RH): 0.07828%
- % dMass (RH 28.68%, 0-90% RH): 0.08362%
- % dMass (RH 31.96%, 0-90% RH): 0.09341%
- % dMass (RH 35.18%, 0-90% RH): 0.1005%
- % dMass (RH 38.16%, 0-90% RH): 0.1076%
- % dMass (RH 41.24%, 0-90% RH): 0.1139%
- % dMass (RH 44.36%, 0-90% RH): 0.1165%
- % dMass (RH 47.56%, 0-90% RH): 0.1237%
- % dMass (RH 50.7%, 0-90% RH): 0.1334%
- % dMass (RH 53.86%, 0-90% RH): 0.1423%
- % dMass (RH 56.98%, 0-90% RH): 0.153%
- % dMass (RH 60.24%, 0-90% RH): 0.1646%
- % dMass (RH 63.9%, 0-90% RH): 0.1841%
- % dMass (RH 66.22%, 90-0% RH): 0.2046%
- % dMass (RH 66.66%, 0-90% RH): 0.2028%
- % dMass (RH 69.18%, 90-0% RH): 0.234%
- % dMass (RH 69.48%, 0-90% RH): 0.2251%
- % dMass (RH 72.34%, 90-0% RH): 0.3194%
- % dMass (RH 72.76%, 0-90% RH): 0.2562%
- % dMass (RH 75.26%, 90-0% RH): 0.3629%
- % dMass (RH 75.68%, 0-90% RH): 0.2936%
- % dMass (RH 77.96%, 90-0% RH): 0.4074%
- % dMass (RH 78.42%, 0-90% RH): 0.3371%
- % dMass (RH 80.84%, 90-0% RH): 0.4706%
- % dMass (RH 81.9%, 0-90% RH): 0.4163%
- % dMass (RH 83.48%, 90-0% RH): 0.5569%
- % dMass (RH 85.3%, 0-90% RH): 0.6218%
- % dMass (RH 85.94%, 90-0% RH): 0.693%
- % dMass (RH 88.38%, 0-90% RH): 0.9643%
- % dMass (RH 88.42%, 90-0% RH): 0.9723%
- hygroscopicity compared with Crystal Form Ib (above 74% relative humidity (RH)): less hygroscopic
SMILES: O=C(N[C@H]1CN2CCC1CC2)c1cc2ccoc2cn1 [Crystal Form Ia, N-[(3R)-1-azabicyclo[2.2.2]oct-3-yl]furo[2,3-c]pyridine-5-carboxamide]

- % dMass (RH 0%, 36-0% RH): 0.1164%
- % dMass (RH 0.24%, 36-0% RH): 0.1225%
- % dMass (RH 2.62%, 0-90% RH): 0.1479%
- % dMass (RH 3.16%, 36-0% RH): 0.1628%
- % dMass (RH 5.84%, 0-90% RH): 0.1768%
- % dMass (RH 6.36%, 36-0% RH): 0.1899%
- % dMass (RH 8.98%, 0-90% RH): 0.2048%
- % dMass (RH 9.74%, 36-0% RH): 0.2197%
- % dMass (RH 12.2%, 0-90% RH): 0.2293%
- % dMass (RH 12.78%, 36-0% RH): 0.2451%
- % dMass (RH 15.34%, 0-90% RH): 0.2547%
- % dMass (RH 15.78%, 36-0% RH): 0.2678%
- % dMass (RH 18.46%, 0-90% RH): 0.281%
- % dMass (RH 18.8%, 36-0% RH): 0.2932%
- % dMass (RH 21.42%, 0-90% RH): 0.3037%
- % dMass (RH 21.88%, 36-0% RH): 0.3195%
- % dMass (RH 24.66%, 0-90% RH): 0.3335%
- % dMass (RH 25.1%, 36-0% RH): 0.3466%
- % dMass (RH 27.74%, 0-90% RH): 0.3606%
- % dMass (RH 28.16%, 36-0% RH): 0.3772%
- % dMass (RH 30.82%, 0-90% RH): 0.3921%
- % dMass (RH 33.92%, 0-90% RH): 0.4245%
- % dMass (RH 36.96%, 0-90% RH): 0.4586%
- % dMass (RH 39.9%, 0-90% RH): 0.491%
- % dMass (RH 43.18%, 0-90% RH): 0.5348%
- % dMass (RH 46.14%, 0-90% RH): 0.5768%
- % dMass (RH 49.16%, 0-90% RH): 0.6302%
- % dMass (RH 52.12%, 0-90% RH): 0.6871%
- % dMass (RH 55.1%, 0-90% RH): 0.7501%
- % dMass (RH 58.08%, 0-90% RH): 0.8219%
- % dMass (RH 61.08%, 0-90% RH): 0.9068%
- % dMass (RH 64.04%, 0-90% RH): 1.002%
- % dMass (RH 67.02%, 0-90% RH): 1.124%
- % dMass (RH 68.62%, 90-0% RH): 26.01%
- % dMass (RH 70%, 0-90% RH): 1.281%
- % dMass (RH 71.48%, 90-0% RH): 26.27%
- % dMass (RH 72.9%, 0-90% RH): 1.505%
- % dMass (RH 74.3%, 90-0% RH): 26.58%
- % dMass (RH 75.9%, 0-90% RH): 1.925%
- % dMass (RH 77.1%, 90-0% RH): 26.92%
- % dMass (RH 79.2%, 0-90% RH): 26.93%
- % dMass (RH 79.88%, 90-0% RH): 27.36%
- % dMass (RH 82%, 0-90% RH): 27.4%
- % dMass (RH 82.5%, 90-0% RH): 28%
- % dMass (RH 85.04%, 0-90% RH): 28.18%
- % dMass (RH 85.12%, 90-0% RH): 30.2%
- % dMass (RH 87.82%, 0-90% RH): 30.29%
- % dMass (RH 87.9%, 90-0% RH): 32.21%
- % dMass (RH 90.7%, 0-90% RH): 38.78%
- % dMass (RH 90.7%, 90-0% RH): 38.8%
SMILES: O=C(N[C@H]1CN2CCC1CC2)c1cc2ccoc2cn1 [Crystal Form Ib, N-[(3R)-1-azabicyclo[2.2.2]oct-3-yl]furo[2,3-c]pyridine-5-carboxamide]
